Reference: patent US20100267561A1, “HERBICIDAL PYRIDAZINONE DERIVATIVES” (priority 2007, published 2010)

Experiments:
Type in all cases: in vivo
[1] = system: canarygrass (Phalaris minor); experiment: Test B postemergence plant response; conditions: for Plant response rating, Canarygrass: Postemergence
Procedure, shortened: (§1)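 Compounds applied after emergence to 2–18 cm plants; response read visually 13–15 days later on 0 (none) to 100 (complete control); a dash marks no result.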

[2] = system: winter barley (Hordeum vulgare); experiment: Test B postemergence plant response; conditions: for Plant response rating, Barley: Postemergence, scale 0 to 100, 0 no effect, 100 complete control
Procedure, shortened: as §1

[3] = system: windgrass (Apera spica-venti); experiment: Test B postemergence plant response; conditions: for Plant response rating, Windgrass: Postemergence
Procedure, shortened: as §1

[4] = system: chickweed (Stellaria media); experiment: Test B postemergence plant response; conditions: for Plant response rating, Chickweed: Postemergence
Procedure, shortened: as §1

[5] = system: pigweed (Amaranthus retroflexus); experiment: Test C pre-/postemergence plant response
Procedure, shortened: (§2)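 Both preemergence (to planted seed) and postemergence (to plants 2–18 cm high, 1- to 4-leaf) applications used test chemicals in a non-phytotoxic solvent mixture containing surfactant. Evaluation: visual comparison with controls after 15 to 25 days; 0 means no effect, 100 complete control.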

[6] = system: blackgrass (Alopecurus myosuroides); experiment: Test C pre-/postemergence plant response
Procedure, shortened: as §2

[7] = system: wild mustard (Sinapis arvensis); experiment: Test C pre-/postemergence plant response
Procedure, shortened: as §2

[8] = system: Italian ryegrass (Lolium multiflorum); experiment: Test C pre-/postemergence plant response
Procedure, shortened: as §2

[9] = system: green foxtail (Setaria viridis); experiment: Test C pre-/postemergence plant response
Procedure, shortened: as §2

[10] = system: canarygrass (Phalaris minor); experiment: Test C pre-/postemergence plant response
Procedure, shortened: as §2

[11] = system: spring barley (Hordeum vulgare); experiment: Test C pre-/postemergence plant response
Procedure, shortened: as §2

[12] = system: winter barley (Hordeum vulgare); experiment: Test C pre-/postemergence plant response
Procedure, shortened: as §2

[13] = system: winter wheat (Triticum aestivum); experiment: Test C pre-/postemergence plant response
Procedure, shortened: as §2

[14] = system: annual bluegrass (Poa annua); experiment: Test C pre-/postemergence plant response
Procedure, shortened: as §2

wild oat (Avena fatua) = experiment: Test C pre-/postemergence plant response
Procedure, shortened: as §2

[15] = system: windgrass (Apera spica-venti); experiment: Test C pre-/postemergence plant response
Procedure, shortened: as §2

[16] = system: downy bromegrass (Bromus tectorum); experiment: Test C pre-/postemergence plant response
Procedure, shortened: as §2

[17] = 8 g ai/ha, postemergence, 0-100 scale
[18] = 31 g ai/ha, scale 0 to 100, 0 no effect, 100 complete control
[19] = 62 g ai/ha, scale 0 to 100, 0 no effect, 100 complete control
[20] = Postemergence, 8 g ai/ha, scale 0 to 100, 0 no effect, 100 complete control
[21] = Postemergence, 16 g ai/ha, scale 0 to 100, 0 no effect, 100 complete control
[22] = Postemergence, 31 g ai/ha, scale 0 to 100, 0 no effect, 100 complete control
[23] = Postemergence, 62 g ai/ha, scale 0 to 100, 0 no effect, 100 complete control
[24] = Preemergence, 8 g ai/ha, scale 0 to 100 (0 no effect, 100 complete control)
[25] = Preemergence, 16 g ai/ha, scale 0 to 100 (0 no effect, 100 complete control)
[26] = Preemergence, 31 g ai/ha, scale 0 to 100 (0 no effect, 100 complete control)
[27] = Preemergence, 62 g ai/ha, scale 0 to 100, 0 no effect, 100 complete control

## Cc1cc(-c2ccc(Cl)cc2)nn1-c1c(OC(=O)CC(C)C)cnn(C)c1=O [Compound 37]
[1]; [17]
  Canarygrass plant response rating: 0
[1]; 16 g ai/ha, scale 0 to 100
  Plant response rating, Canarygrass: 10
[1]; [18]
  Plant response rating, Canarygrass: 10
[1]; [19]
  Plant response rating, Canarygrass: 40
[2]; [17]
  Barley plant response rating: 0
[2]; 16 g ai/ha
  Plant response rating, Barley: 0
[2]; 31 g ai/ha
  Plant response rating, Barley: 5
[2]; 62 g ai/ha
  Plant response rating, Barley: 15
[3]; [17]
  Windgrass plant response rating: 10
[3]; 16 g ai/ha, scale 0 to 100
  Plant response rating, Windgrass: 60
[3]; [19]
  Plant response rating, Windgrass: 85
[4]; [17]
  Chickweed plant response rating: 0
[4]; 16 g ai/ha, scale 0 to 100
  Plant response rating, Chickweed: 0
[4]; [18]
  Plant response rating, Chickweed: 0
[4]; [19]
  Plant response rating, Chickweed: 0
[5]; [20]
  Plant response rating, Pigweed: 0
[5]; [21]
  Plant response rating, Pigweed: 0
[5]; [22]
  Plant response rating, Pigweed: 0
[5]; [23]
  Plant response rating, Pigweed: 0
[5]; [24]
  Plant response rating, Pigweed: 0
[5]; [25]
  Plant response rating, Pigweed: 0
[5]; [26]
  Plant response rating, Pigweed: 0
[5]; [27]
  Plant response rating, Pigweed: 0
[6]; [20]
  Plant response rating, Blackgrass: 65
[6]; [21]
  Plant response rating, Blackgrass: 90
[6]; [22]
  Plant response rating, Blackgrass: 100
[6]; [23]
  Plant response rating, Blackgrass: 100
[6]; [24]
  Plant response rating, Blackgrass: 35
[6]; [25]
  Plant response rating, Blackgrass: 75
[6]; [26]
  Plant response rating, Blackgrass: 90
[6]; [27]
  Plant response rating, Blackgrass: 98
[7]; [20]
  Plant response rating, Mustard, Wild: 0
[7]; [21]
  Plant response rating, Mustard, Wild: 0
[7]; [22]
  Plant response rating, Mustard, Wild: 0
[7]; [23]
  Plant response rating, Mustard, Wild: 0
[7]; [24]
  Plant response rating, Mustard, Wild: 0
[7]; [25]
  Plant response rating, Mustard, Wild: 0
[7]; [26]
  Plant response rating, Mustard, Wild: 0
[7]; [27]
  Plant response rating, Mustard, Wild: 0
[8]; [20]
  Plant response rating, Ryegrass, Italian: 75
[8]; [21]
  Plant response rating, Ryegrass, Italian: 95
[8]; [22]
  Plant response rating, Ryegrass, Italian: 100
[8]; [23]
  Plant response rating, Ryegrass, Italian: 100
[8]; [24]
  Plant response rating, Ryegrass, Italian: 0
[8]; [25]
  Plant response rating, Ryegrass, Italian: 80
[8]; [26]
  Plant response rating, Ryegrass, Italian: 98
[8]; [27]
  Plant response rating, Ryegrass, Italian: 100
[9]; [20]
  Plant response rating, Foxtail, Green: 90
[9]; [21]
  Plant response rating, Foxtail, Green: 100
[9]; [22]
  Plant response rating, Foxtail, Green: 100
[9]; [23]
  Plant response rating, Foxtail, Green: 100
[9]; [24]
  Plant response rating, Foxtail, Green: 75
[9]; [25]
  Plant response rating, Foxtail, Green: 90
[9]; [26]
  Plant response rating, Foxtail, Green: 100
[9]; [27]
  Plant response rating, Foxtail, Green: 100
[10]; [20]
  Plant response rating, Canarygrass: 0
[10]; [21]
  Plant response rating, Canarygrass: 35
[10]; [22]
  Plant response rating, Canarygrass: 75
[10]; [23]
  Plant response rating, Canarygrass: 100
[10]; [24]
  Plant response rating, Canarygrass: 15
[10]; [25]
  Plant response rating, Canarygrass: 60
[10]; [26]
  Plant response rating, Canarygrass: 80
[10]; [27]
  Plant response rating, Canarygrass: 95
[11]; [20]
  Plant response rating, Barley, Spring: 0
[11]; [21]
  Plant response rating, Barley, Spring: 20
[11]; [22]
  Plant response rating, Barley, Spring: 50
[11]; [23]
  Plant response rating, Barley, Spring: 100
[11]; [24]
  Plant response rating, Barley, Spring: 0
[11]; [25]
  Plant response rating, Barley, Spring: 0
[11]; [26]
  Plant response rating, Barley, Spring: 15
[11]; [27]
  Plant response rating, Barley, Spring: 40
[12]; [20]
  Plant response rating, Barley, Winter: 10
[12]; [21]
  Plant response rating, Barley, Winter: 10
[12]; [22]
  Plant response rating, Barley, Winter: 25
[12]; [23]
  Plant response rating, Barley, Winter: 95
[12]; [24]
  Plant response rating, Barley, Winter: 0
[12]; [25]
  Plant response rating, Barley, Winter: 0
[12]; [26]
  Plant response rating, Barley, Winter: 20
[12]; [27]
  Plant response rating, Barley, Winter: 40
[13]; [20]
  Plant response rating, Wheat, Winter: 0
[13]; [21]
  Plant response rating, Wheat, Winter: 30
[13]; [22]
  Plant response rating, Wheat, Winter: 60
[13]; [23]
  Plant response rating, Wheat, Winter: 90
[13]; [24]
  Plant response rating, Wheat, Winter: 0
[13]; [25]
  Plant response rating, Wheat, Winter: 15
[13]; [26]
  Plant response rating, Wheat, Winter: 25
[13]; [27]
  Plant response rating, Wheat, Winter: 90
[14]; [20]
  Plant response rating, Bluegrass: 0
[14]; [21]
  Plant response rating, Bluegrass: 20
[14]; [22]
  Plant response rating, Bluegrass: 20
[14]; [23]
  Plant response rating, Bluegrass: 20
[14]; [24]
  Plant response rating, Bluegrass: 0
[14]; [25]
  Plant response rating, Bluegrass: 35
[14]; [26]
  Plant response rating, Bluegrass: 60
[14]; [27]
  Plant response rating, Bluegrass: 70
Wild oat (Avena fatua); [20]
  Plant response rating, Oat, Wild: 25
Wild oat (Avena fatua); [21]
  Plant response rating, Oat, Wild: 80
Wild oat (Avena fatua); [22]
  Plant response rating, Oat, Wild: 90
Wild oat (Avena fatua); [23]
  Plant response rating, Oat, Wild: 95
Wild oat (Avena fatua); [24]
  Plant response rating, Oat, Wild: 20
Wild oat (Avena fatua); [25]
  Plant response rating, Oat, Wild: 20
Wild oat (Avena fatua); [26]
  Plant response rating, Oat, Wild: 70
Wild oat (Avena fatua); [27]
  Plant response rating, Oat, Wild: 80
[15]; [20]
  Plant response rating, Windgrass: 0
[15]; [21]
  Plant response rating, Windgrass: 0
[15]; [22]
  Plant response rating, Windgrass: 15
[15]; [23]
  Plant response rating, Windgrass: 30
[15]; [24]
  Plant response rating, Windgrass: 0
[15]; [25]
  Plant response rating, Windgrass: 20
[15]; [26]
  Plant response rating, Windgrass: 60
[15]; [27]
  Plant response rating, Windgrass: 80
[16]; [20]
  Plant response rating, Bromegrass, Downy: 20
[16]; [21]
  Plant response rating, Bromegrass, Downy: 30
[16]; [22]
  Plant response rating, Bromegrass, Downy: 50
[16]; [23]
  Plant response rating, Bromegrass, Downy: 70
[16]; [24]
  Plant response rating, Bromegrass, Downy: 0
[16]; [25]
  Plant response rating, Bromegrass, Downy: 0
[16]; [26]
  Plant response rating, Bromegrass, Downy: 60
[16]; [27]
  Plant response rating, Bromegrass, Downy: 85
